In experiment [1] the target is T1, expandase from N. lactamdurans (Amycolatopsis lactamdurans, UniProt Q03047).
T1 construct: made in house; host or cells: S. lividans 1326 transformed with pUL702-202a, crude cell-free extract
Put plainly: Ring expansion by cell-free extracts of S. lividans containing pUL702-202a (Example 7). The format is biochemical. As to conditions: S. lividans pUL702-202a cell-free extract 6 mg/ml protein, substrate 5.6 mM. As to the method: (§1) Microorganism, Medium and Culture Conditions: S. lividans 1326 was used in all experiments. Cultures were grown in 250 ml baffled flasks containing 40 ml of MST medium. Each flask was inoculated with 50 μl of a spore suspension (prepared and stored at −80° C. in 20% glycerol) and incubated at 30° C., 250 rpm, for 48 h.
(§2) Plasmids: The plasmid pUL702-202a was a gift from J. F. Martin (University of León, Spain). This vector harboured a 4.3 Kb BglII fragment containing the epimerase and expandase genes from Nocardia lactamdurans inserted at the BglII site on pIJ702. The plasmid pHJ11 was constructed by cloning a 3 Kb BglII fragment containing the expandase gene from S. clavuligerus 3585 into pIJ702 at the BglII site.
(§3) Ring Expansion Reaction: The ring expansion mixture contained 1.8 mM FeSO4, 1.28 mM α-ketoglutarate, 6 mg/ml protein (cell-free extract), 8 mM KCl, 8 mM MgSO4, 14 mM DTT and 50 mM TrisHCl (pH 7.4) in a final volume of 2.5 ml. Substrate concentration was 5.6 mM. Additions were made following the order established by Shen et al. (Enzyme Microb. Technol. 6:402-404, 1984). Reaction mixtures were incubated in test tubes at 220 rpm, 30° C. At different times, 0.5 ml samples were taken and the reaction was stopped by adding 0.5 ml of methanol. […] Biotransformation activity was detected by paper disc-agar diffusion bioassay. […]

Experiment [2] deals with T2, S. clavuligerus expandase (Streptomyces clavuligerus, UniProt P18548).
T2 construct: The cells were resuspended in the same buffer and disrupted by four 25-sec. sonication treatments; endogenous in cells; host or cells: S. clavuligerus mutant NP1, crude cell-free extract
The conditions noted are these: literature reports (Jensen 1982; Dotzlaf 1989; Yeh 1994; Maeda 1995); cited from earlier work.

For experiment [3], the target named is T2, S. clavuligerus expandase. Description: Penicillin ring expansion by cell-free S. clavuligerus expandase extracts, paper disc-agar diffusion bioassay. The class given is biochemical. The conditions noted are these: 4 mg/ml extract protein. As to the method: Preparation of Cell-free Extracts: Fermentation broths were centrifuged at 8,000×g and 4° C. for 10 min. Pellets were washed twice using 50 mM Tris-HCI supplemented with 0.1 mM dithiothreitol (DTT). The cells were resuspended in the same buffer and disrupted by four 25-sec. sonication treatments (power setting 5 and duty cycle 50%), in an ice-water bath using a Branson 350 sonifier (Branson Sonic Power Co., Danbury, Conn.). Cell debris was removed by centrifugation (14,000×g, 30 min., 4° C.). The resulting extracts containing 8-10 mg protein/ml were placed on ice and utilized immediately. Protein concentrations were measured using the Bio-Rad protein assay (Bio-Rad, Hercules, Calif.). Bovine serum albumin was used as standard.
Ring Expansion Reaction: We defined ring expansion reaction conditions as modifications of the standard reaction mixture for expandase reactions described by Maeda et al. (Maeda et al., Enzyme Microb. Technol. 17:231-34, 1995) except that penicillin G was used a substrate instead of penicillin N. Additions were made following the order established by Shen et al. (Shen et al., Enzyme Microb. Technol. 6:402-404, 1984. Reaction mixtures were incubated in test tubes (cell-free extract) or 250 ml baffled flasks (resting cells) at 220 rpm, 30° C. Reactions containing the protein extract were stopped at various times (see Table 1 and Figure Legends) by mixing 0.5 ml of assay solution with 0.5 ml of methanol. In the case of resting cells, samples were centrifuged to remove cells and supernatants were transferred to new tubes. Expandase activity was detected by paper disc-agar diffusion bioassay.
Detection of Expandase Activity: As mentioned above, expandase activity was detected by assaying production of a growth-inhibitory zone in a paper disc-agar diffusion bioassay. Paper discs were saturated with 200 μl of the reaction mixture (cell-free extracts or supernatant (resting cells) as follows. Two discs were superimposed and four 50 μl samples were applied. After each application, the discs were allowed to dry for 20 min at 37° C. under a laminar hood and, finally, they were placed on LB (1% tryptone, 0.5% NaCl, 0.5% yeast extract, 0.1% glucose) 0.8% agar medium seeded with E. coli ESS (a β-lactam supersensitive mutant), and the plates were incubated overnight at 37° C. The formation of DAOG and/or other cephalosporin(s) was determined by including 50,000 IU/ml of penicillinase (Difco Bacto penase concentrate, Difco Laboratories, Detroit, Mich.) in the assay plates. This penicillinase is a narrow spectrum β-lactamase that attacks penicillins but not cephalosporins. The diameters of zones of growth inhibition were measured and quantified with a calibration curve using DAOG as standard.
Ring Expansion of Other Penicillins by Cell-free Extracts: We tested our reaction conditions for their ability to support ring expansion on other penicillin substrates and found detectable expansion with each of the 15 substrates that we tested. […] The reactions contained 4 mg/ml extract (protein concentration), 50 mM Tris-HCl pH 7.4, 1.8 mM FeSO4, 1.28 mM α-ketoglutarate, 8 mM MgSO4, 8 mM KCl, 4 mM ascorbic acid, 14 mM DTT, and 2 mg/ml substrate (except for penicillin mX and octanoyl-6-APA, which were used at 3 mg/ml). Samples were centrifuged at 12K rpm for 5 minutes after 2 hours of reaction. 250 μl of reaction mixture was used in each bioassay.
On the technique in general: In agar diffusion tests the substance spreads into inoculated agar from a disc or well.

The target of another experiment is T3, C. acremonium expandase (Hapsidospora chrysogena, UniProt P11935).
T3 sequence (P11935 1-332): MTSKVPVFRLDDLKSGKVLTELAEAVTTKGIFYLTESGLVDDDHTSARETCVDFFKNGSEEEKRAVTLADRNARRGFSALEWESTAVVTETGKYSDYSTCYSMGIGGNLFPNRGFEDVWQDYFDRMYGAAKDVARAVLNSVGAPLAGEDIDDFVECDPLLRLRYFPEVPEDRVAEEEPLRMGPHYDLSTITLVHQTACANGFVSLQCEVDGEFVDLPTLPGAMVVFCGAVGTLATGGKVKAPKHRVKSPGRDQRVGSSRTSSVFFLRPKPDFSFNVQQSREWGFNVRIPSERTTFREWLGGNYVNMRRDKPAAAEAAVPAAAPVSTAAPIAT
As to conditions: partially purified enzyme (Kupka et al. 1983); cited from earlier work.

For experiment [4], the target named is T4, expandase from S. clavuligerus (Streptomyces clavuligerus, UniProt P18548).
T4 construct: made in house; host or cells: S. lividans 1326 transformed with pHJ11, crude cell-free extract
Put plainly: Ring expansion by cell-free extracts of S. lividans transformant pHJ11 (Example 7). The format is biochemical. As to conditions: pHJ11 cell-free extract 6 mg/ml protein, substrate 5.6 mM, after 4 h of reaction. As to the method: as §1, §2, §3

Here are results for one molecule from patent US6383773B2, “Penicillin conversion” (Massachusetts Institute of Technology, priority 1998, dated 2002).

T2 sequence (P18548 whole entry): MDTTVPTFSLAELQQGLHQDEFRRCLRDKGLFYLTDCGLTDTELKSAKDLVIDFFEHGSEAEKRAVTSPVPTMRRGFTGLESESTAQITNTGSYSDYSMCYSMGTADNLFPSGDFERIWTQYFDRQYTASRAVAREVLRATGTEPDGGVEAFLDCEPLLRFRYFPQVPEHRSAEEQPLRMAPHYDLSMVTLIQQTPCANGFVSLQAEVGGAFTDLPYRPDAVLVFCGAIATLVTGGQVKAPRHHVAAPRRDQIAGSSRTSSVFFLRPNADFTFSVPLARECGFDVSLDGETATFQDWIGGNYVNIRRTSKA
T1 sequence (Q03047 whole entry): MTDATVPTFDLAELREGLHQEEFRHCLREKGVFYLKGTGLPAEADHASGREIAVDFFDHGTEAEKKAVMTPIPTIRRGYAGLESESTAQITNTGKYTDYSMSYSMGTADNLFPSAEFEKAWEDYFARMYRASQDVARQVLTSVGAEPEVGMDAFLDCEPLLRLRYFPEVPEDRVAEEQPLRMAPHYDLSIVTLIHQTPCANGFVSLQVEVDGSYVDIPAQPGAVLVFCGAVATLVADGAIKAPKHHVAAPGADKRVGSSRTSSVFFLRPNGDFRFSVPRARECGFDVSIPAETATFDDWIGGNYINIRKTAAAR
T4 sequence (P18548 whole entry): as the sequence (P18548 whole entry) above

Turning to `CC1(C)S[C@@H]2[C@H](NC(=O)[C@H](N)c3ccccc3)C(=O)N2[C@H]1C(=O)O` [Ampicillin, ampicillin], the “ring expansion” value in experiment [1] is given as “expansion was only observed when penicillin G was used as substrate”; in experiment [2], “not”; at C. acremonium expandase, “does not expand”. The “Ring expansion, size of zones of inhibition” value in experiment [3] (2 mg/ml substrate (penicillin mX and octanoyl-6-APA 3 mg/ml), 2 hours) was “intermediate size zones”. For the same molecule, the “Inhibition Zone Diameter” value in experiment [3] (2 mg/ml substrate, 2 hours of reaction, 250 μl in bioassay (E. coli ESS, penicillinase)) turned out to be 17 mm. Also, the production of cephalosporins entry in experiment [4] was “about 1.5 μg/ml”.
